Source: the supplement of paper PMC10307832

Legend:
Assay in all cases: relative viability (nuclei count vs DMSO), 5 days (fraction); higher = more cells survive
BI-2536 + Lapatinib = compound: CC[C@@H]1C(=O)N(C)c2cnc(Nc3ccc(C(=O)NC4CCN(C)CC4)cc3OC)nc2N1C1CCCC1 [BI-2536] + CS(=O)(=O)CCNCc1ccc(-c2ccc3ncnc(Nc4ccc(OCc5cccc(F)c5)c(Cl)c4)c3c2)o1 [Lapatinib] (partner 2 µM)
Procedure, shortened: (§1)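 Five library-drug doses in √10 steps were combined with a fixed anchor-drug dose, or a single drug was given alone, by pin tool to lung cancer cell lines in 1536-well plates the day after seeding. Nuclei were stained and counted after 5 days. Relative viability is the nuclei count in treated wells over that in vehicle wells, taken as the median of duplicate plates.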

[1] = compound: CC1CC(=O)N(C2=CN=C(N=C2N1C3CCCC3)NC4=C(C=C(C=C4)C(=O)NC5CCN(CC5)C)OC)C [NPK76-II-72-1] + N=C(N)NC(=N)NCCc1ccccc1 [Phenformin] (partner 250 µM)
Procedure, shortened: as §1

[2] = compound: CC1CC(=O)N(C2=CN=C(N=C2N1C3CCCC3)NC4=C(C=C(C=C4)C(=O)NC5CCN(CC5)C)OC)C [NPK76-II-72-1] + O=C(CCCCCCC(=O)Nc1ccccc1)NO [Vorinostat] (partner 1 µM)
Procedure, shortened: as §1

BI-2536 + Vorinostat = compound: CC[C@@H]1C(=O)N(C)c2cnc(Nc3ccc(C(=O)NC4CCN(C)CC4)cc3OC)nc2N1C1CCCC1 [BI-2536] + O=C(CCCCCCC(=O)Nc1ccccc1)NO [Vorinostat] (partner 1 µM)
Procedure, shortened: as §1

Cell Line	relative viability (BI-2536 + Lapatinib; first compound 0.01 µM)	relative viability (BI-2536 + Lapatinib; first compound 0.03162 µM)	relative viability (BI-2536 + Lapatinib; first compound 0.1 µM)	relative viability (BI-2536 + Lapatinib; first compound 0.3162 µM)	relative viability (BI-2536 + Lapatinib; first compound 1 µM)	relative viability ([1]; first compound 0.01 µM)	relative viability ([1]; first compound 0.03162 µM)	relative viability ([1]; first compound 0.1 µM)	relative viability ([1]; first compound 0.3162 µM)	relative viability ([1]; first compound 1 µM)	relative viability ([2]; first compound 0.01 µM)	relative viability ([2]; first compound 0.03162 µM)	relative viability ([2]; first compound 0.1 µM)	relative viability ([2]; first compound 0.3162 µM)	relative viability ([2]; first compound 1 µM)	relative viability (BI-2536 + Vorinostat; first compound 0.01 µM)	relative viability (BI-2536 + Vorinostat; first compound 0.03162 µM)	relative viability (BI-2536 + Vorinostat; first compound 0.1 µM)	relative viability (BI-2536 + Vorinostat; first compound 0.3162 µM)	relative viability (BI-2536 + Vorinostat; first compound 1 µM)
NCI-H838	1.04	0.877	0.155	0.101	0.133	0.532	0.585	0.657	0.629	0.556	0.69	0.73	0.717	0.684	0.672	0.766	0.668	0.371	0.152	0.141
NCI-H1755	0.968	0.982	0.498	0.204	0.272	0.605	0.634	0.575	0.647	0.654	0.89	0.76	0.928	0.82	0.782	0.833	0.595	0.426	0.34	0.329
HCC-78	0.403	0.885	0.814	0.39	0.18	0.695	0.684	0.684	0.692	0.665	0.456	0.461	0.463	0.418	0.499	0.421	0.49	0.379	0.268	0.27
IA-LM	0.699	0.639	0.408	0.139	0.0816						1.1	0.923	0.852	1.03	1.1	1.07	1.26	0.692	0.0844	0.0605
NCI-H322M	0.545	0.483	0.59	0.673	0.251	0.706	0.935	0.778	0.817	0.829	0.886	0.808	0.861	1.01	0.913	0.926	0.829	0.641	0.45	0.422
NCI-H3122	0.943	1.07	0.296	0.258	0.228	0.374	0.378	0.389	0.378	0.38	0.943	0.923	1.05	1.05	1.05	0.928	0.779	0.179	0.149	0.151
COR-L23	1.05	0.776	0.357	0.0913	0.102	0.397	0.453	0.491	0.434	0.438	0.408	0.519	0.408	0.427	0.48	0.438	0.281	0.135	0.0945	0.0882
NCI-H2087	1.38	0.992	0.594	0.138	0.146	0.42	0.543	0.397	0.398	0.498	0.569	0.854	0.572	0.485	0.814	0.731	0.773	0.229	0.0706	0.124
LC-2-ad	0.995	0.715	0.121	0.127	0.131	0.531	0.607	0.558	0.494	0.665	0.619	0.768	0.668	0.755	0.698	0.63	0.274	0.181	0.198	0.221
NCI-H1915	0.882	0.965	0.752	0.62	0.0794	0.363	0.39	0.363	0.34	0.357	0.504	0.537	0.483	0.442	0.574	0.464	0.478	0.295	0.0928	0.0626
NCI-H1792	0.93	0.751	1.09	0.186	0.0746	0.289	0.367	0.16	0.287	0.422										
ChaGo-K-1						0.472	0.575	0.544	0.476	0.478	0.703	0.735	0.809	0.687	0.789	0.764	0.749	0.265	0.182	0.196
NCI-H522						0.557	0.732	0.639	0.563	0.699	0.736	0.902	0.995		0.79	0.785	0.933	0.533	0.277	0.284
NCI-H1299	0.933	0.933	0.69	0.291	0.235															
NCI-H1648											0.455	0.536	0.319	0.348	0.437	0.331	0.596	0.264	0.189	0.21
NCI-H2342						0.606	0.472	0.675	0.394	0.623	0.742	0.917	0.783	0.658	0.763		0.705	0.79	0.445	0.385
SW 900						0.559	0.73	0.657	0.664	0.699	0.515	0.624	0.515	0.433	0.559	0.445	0.598	0.481	0.159	0.218
A549	1.05	0.813	0.476	0.053	0.0394		0.136	0.222	0.155	0.192										
NCI-H1563	0.906	0.938	0.832	0.568	0.638	0.686	0.606	0.637	0.656	0.697										
LCLC-103H						0.273	0.363	0.342	0.329	0.342		0.83	0.769	0.745	0.838	0.767	0.776	0.265	0.168	0.239
NCI-H441						0.945	0.917	0.876	0.672	0.886	0.64	0.839	0.881	0.881	0.851	0.668	0.601	0.263	0.212	0.178
